EC50 data for three compounds are collected here from patent publication US12344610B2, “APOL1 inhibitors and methods of use” (Maze Therapeutics, Inc., priority 2022, dated 2025).

Experiment [1] concerns HEK293 clonal cell line overexpressing APOL1 G1. Nature of the experiment: APOL1 G1 HEK293 cell rescue assay (Example B3). The class given is cell-based. Particulars: geometric mean of at least 2 runs, † = single run, ¥ = concentration at 50% rescue estimated (no sigmoidal curve). Summed up: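 Rescue of cell death caused by APOL1 G1 overexpression was measured in a clonal HEK293 line. Compounds were tested in duplicate on one plate, and EC50s were geometric means across at least two runs on different days. Some values are estimated 50%-rescue concentrations where curve fitting failed.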

The subject of experiment [2] is Trypanosoma brucei Lister 427 VSG221 with APOL1 G2 recombinant protein. The experiment is described as follows: APOL1 G2 trypanosome cell rescue assay (Example B5). In kind it is cell-based. Particulars: geometric mean of at least 2 assay runs, † = single assay run. Put shortly: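 Viability read by CellTiter-Glo luminescence after 20 h co-incubation (37° C, 5% CO2) of 250 trypanosomes/well in modified HMI-9 with test compound (duplicate 11-point, 2-fold dilutions, 0.4% DMSO) and APOL1 protein, […]. Protein: mature residues 28-398, E. coli inclusion-body refolded, tag cleaved, in DDM.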

The mark [3] stands for this setting: Homo sapiens, HEK293, HEK293 clonal line overexpressing APOL1 G1.
Where [4] appears, read: Trypanosoma brucei, 20 h, read-out: APOL1 G2 Trypanosome Rescue EC50, Trypanosoma brucei Lister 427 VSG221 with APOL1 G2 recombinant protein, 20 hours, CellTiter-Glo.

Like-named read-outs stand apart in the source and are kept apart here.

What is called EC50 is the concentration that produces a half-maximal response. Consider `CS(=O)(=O)C1(c2ccc(OCCN3CCC4(CC3)C(=O)Nc3ccc(Cl)cc34)cc2)CC(O)C1` (stereo not drawn) [Compound 270, 5-chloro-1′-(2-{4-[(trans) or (cis)-3-hydroxy-1-methanesulfonylcyclobutyl]phenoxy}ethyl)-1,2-dihydrospiro[indole-3,4′-piperidin]-2-one], for which the EC50 is 60.7 nM in experiment [1] (HEK293 clonal line overexpressing APOL1 G1) and 25.3 nM in experiment [2] (read-out: APOL1 G2 Trypanosome Rescue EC50, Trypanosoma brucei Lister 427 VSG221 with APOL1 G2 recombinant protein, 20 hours, CellTiter-Glo).

`C[C@]1(O)C[C@@H](n2c(=O)cnc3cc(OCCN4CCC5(CC4)C(=O)Nc4ccc(Cl)cc45)cnc32)C1` [Compound 358, 5-chloro-1′-[2-({3-oxo-4-[(cis)-3-hydroxy-3-methylcyclobutyl]-3H,4H-pyrido[2,3-b]pyrazin-7-yl}oxy)ethyl]-1,2-dihydrospiro[indole-3,4′-piperidin]-2-one]: the concentration giving a half-maximal response (EC50) in experiment [1] (setting [3]) was 111 nM; in experiment [2] (setting [4]), 31.3 nM.

With `CC1(O)CN(c2ncc(OCCN3CCC4(CC3)C(=O)Nc3ccc(C(F)F)cc34)cn2)C1` [Compound 395, 5-(difluoromethyl)-1′-(2-{[2-(3-hydroxy-3-methylazetidin-1-yl)pyrimidin-5-yl]oxy}ethyl)-1,2-dihydrospiro[indole-3,4′-piperidin]-2-one], the EC50 was 157 nM in experiment [1] (setting [3]) and 106 nM in experiment [2] (setting [4]).
